Measured values taken from patent publication US20210318318A1, “Kinase Activity In Tumors” (Institute For Cancer Research d/b/a The Research Institute …, priority 2018, published 2021).

Columns and labels:
MRCKB = target: T1, MRCKB (Homo sapiens, UniProt Q9Y5S2); test: MIB/MS kinome profiling of inhibitor-treated OVSAHO cells; format: cell-based; details: 2 μM, 4 hour treatment
T1 construct: endogenous in cells; host or cells: OVSAHO
Method: (§1) OVSAHO cells were treated with inhibitors at a dose of 2 μM for 4 hours and kinase inhibition profiles determined by MIB/MS. Bar graph depicts % of kinase bound to MIBs relative to DMSO control as determined by label free quantitation.
(§2) OVSAHO cells were treated with 2 μM of inhibitor for 4 hours and analyzed by MIB/MS. Scatterplot depicts difference in kinase MIB-binding of drug treated relative to control DMSO as determined by Students T-test.
(§3) MIB-based kinome profiling was performed on several of these molecules in HGSOC cells to determine kinome-wide inhibition profiles.
(§4) Experiments using MIB/MS were performed as previously described (Duncan et al., Cell, 2012, 149, 307-321; and Kurimchak et al., Cell Reports, 2016, 16, 1273-1286). Briefly, cells or tumors were lysed on ice in buffer containing 50 mM HEPES (pH 7.5), 0.5% Triton X-100, 150 mM NaCl, 1 mM EDTA, 1 mM EGTA, 10 mM sodium fluoride, 2.5 mM sodium orthovanadate, 1× protease inhibitor cocktail (Roche), and 1% each of phosphatase inhibitor cocktails 2 and 3 (Sigma). Particulate was removed by centrifugation of lysates at 13,000 rpm for 10 minutes at 4° C. and filtration through 0.2 μm syringe filters. Protein concentrations were determined by BCA analysis (Thermo). To compare kinome signatures within and across such large sample sizes, a super-SILAC method was designed (Neubert et al., Nat. Meth., 2010, 7, 361-362) consisting of a cocktail of cancer cell lines that encompasses the activity of the “cancer kinome” to be used as a control for individual samples. Five cancer cell lines were selected from the NCI-60 panel (UACC257, MOLT4, COL0205, ACHN and PC3) that differed in their origin, gene expression patterns and mutation status. The cancer cell lines were labeled using SILAC and mixed equally providing a diverse SILAC ([^13C6,^15N4] arginine (Arg^10) and […] (Lys^8)) heavy kinome reference standard (HKS) to be used repeatedly in kinome profiling assays. An equal amount of the HKS was added to the non-labeled sample (cell, tumor or normal tissue) providing a quantitative strategy to compare kinome activity/levels across samples, amongst treatments and, importantly, across time. […]
(§5) Proteolytic peptides were resuspended in 0.1% formic acid and separated with a Thermo RSLC Ultimate 3000 on a Thermo Easy-Spray C18 PepMap 75 μm×50 cm C-18 2 μm column with a 240 minute gradient of 4-25% acetonitrile with 0.1% formic acid at 300 nL/min and 50° C. Eluted peptides were analyzed by a Thermo Q Exactive plus mass spectrometer utilizing a top 15 methodology in which the 15 most intense peptide precursor ions were subjected to fragmentation.

[1] = tested on: FAK1, MLC and Paxillin phosphorylation; FAK1 and CHEK1 protein levels; test: Western blot of signaling in inhibitor-treated HGSOC cells; format: cell-based, human; details: HGSOC (COV362) cells, increasing doses 0.5, 1 or 3 μM, 48 hours
Method: COV362 cells were treated with 0.5, 1 or 3 μM of A-674563 or SB-772077 for 48 hours and signaling monitored by western blot.
Samples were harvested in MIB lysis buffer, subjected to SDS-PAGE […] and transferred to PVDF membranes before western blotting with primary antibodies. For pMYPT and pMLC blots, cells were harvested in a buffer containing 1% (w/v) SDS, 50 mM Tris pH 7.5 supplemented with protease and phosphatase inhibitors buffer and were passed through QIAshredder columns (Qiagen, 79654), (Unbekandt et al., Cell Commun. Signal., 2014, 12, 54). For the list of primary antibodies used, see Table 4. Secondary HRP-anti-rabbit and HRP-anti-mouse were obtained from ThermoFisher Scientific. SuperSignal West Pico and Femto Chemiluminescent Substrates (Thermo) were used to visualize blots.

MRCKA = MRCKA (Homo sapiens, UniProt Q5VT25); test: MIB/MS kinome profiling of inhibitor-treated OVSAHO cells; format: cell-based; design: endogenous in cells; host or cells: OVSAHO; details: 2 μM, 4 hour treatment
Chain of MRCKA (Q5VT25 whole entry): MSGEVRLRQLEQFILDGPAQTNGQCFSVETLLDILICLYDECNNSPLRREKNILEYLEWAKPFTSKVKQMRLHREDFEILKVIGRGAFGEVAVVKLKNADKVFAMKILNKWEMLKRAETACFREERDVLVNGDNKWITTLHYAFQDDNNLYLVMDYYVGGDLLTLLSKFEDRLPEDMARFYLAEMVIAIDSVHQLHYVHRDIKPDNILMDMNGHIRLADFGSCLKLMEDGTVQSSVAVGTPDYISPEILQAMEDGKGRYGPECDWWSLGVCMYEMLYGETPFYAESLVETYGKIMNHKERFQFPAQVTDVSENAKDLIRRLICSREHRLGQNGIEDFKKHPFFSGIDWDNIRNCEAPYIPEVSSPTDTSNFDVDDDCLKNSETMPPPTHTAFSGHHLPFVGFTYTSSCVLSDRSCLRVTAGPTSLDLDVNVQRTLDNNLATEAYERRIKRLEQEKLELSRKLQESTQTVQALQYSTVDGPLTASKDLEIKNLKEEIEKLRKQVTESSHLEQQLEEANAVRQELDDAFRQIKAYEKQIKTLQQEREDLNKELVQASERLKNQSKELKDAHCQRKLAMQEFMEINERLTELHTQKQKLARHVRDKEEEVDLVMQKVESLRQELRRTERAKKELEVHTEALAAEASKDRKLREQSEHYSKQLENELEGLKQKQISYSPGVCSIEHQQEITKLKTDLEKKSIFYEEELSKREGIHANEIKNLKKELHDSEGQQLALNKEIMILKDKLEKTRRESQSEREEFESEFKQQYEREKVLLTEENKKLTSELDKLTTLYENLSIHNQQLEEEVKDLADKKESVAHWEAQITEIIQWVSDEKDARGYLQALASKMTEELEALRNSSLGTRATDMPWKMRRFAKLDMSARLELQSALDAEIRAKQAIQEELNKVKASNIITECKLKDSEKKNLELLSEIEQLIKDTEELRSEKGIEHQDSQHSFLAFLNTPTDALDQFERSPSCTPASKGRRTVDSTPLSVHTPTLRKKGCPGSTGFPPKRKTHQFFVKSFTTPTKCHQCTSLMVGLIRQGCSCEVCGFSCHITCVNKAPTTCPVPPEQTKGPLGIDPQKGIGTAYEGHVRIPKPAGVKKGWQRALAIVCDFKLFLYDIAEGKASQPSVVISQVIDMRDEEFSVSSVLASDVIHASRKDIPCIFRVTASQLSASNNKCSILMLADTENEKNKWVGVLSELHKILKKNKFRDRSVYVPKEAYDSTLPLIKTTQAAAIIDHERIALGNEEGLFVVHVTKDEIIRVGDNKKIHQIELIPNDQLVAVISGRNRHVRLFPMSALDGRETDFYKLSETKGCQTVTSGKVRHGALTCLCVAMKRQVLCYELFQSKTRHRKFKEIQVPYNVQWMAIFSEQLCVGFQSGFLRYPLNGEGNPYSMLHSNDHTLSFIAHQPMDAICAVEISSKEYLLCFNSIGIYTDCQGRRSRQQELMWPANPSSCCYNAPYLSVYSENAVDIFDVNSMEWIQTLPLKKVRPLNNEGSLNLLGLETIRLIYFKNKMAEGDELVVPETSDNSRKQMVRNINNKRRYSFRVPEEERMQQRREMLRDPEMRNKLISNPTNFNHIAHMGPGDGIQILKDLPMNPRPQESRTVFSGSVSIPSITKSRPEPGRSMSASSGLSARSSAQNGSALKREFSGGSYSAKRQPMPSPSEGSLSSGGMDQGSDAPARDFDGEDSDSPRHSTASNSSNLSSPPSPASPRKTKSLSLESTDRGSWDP
Method: as §1, §2, §3, §4, §5

ROCK1 = target: T2, ROCK1 (Homo sapiens, UniProt Q13464); test: as above; format: cell-based; details: 2 μM, 4 hours
T2 construct: endogenous in cells; host or cells: OVSAHO
T2 sequence (Q13464 whole entry): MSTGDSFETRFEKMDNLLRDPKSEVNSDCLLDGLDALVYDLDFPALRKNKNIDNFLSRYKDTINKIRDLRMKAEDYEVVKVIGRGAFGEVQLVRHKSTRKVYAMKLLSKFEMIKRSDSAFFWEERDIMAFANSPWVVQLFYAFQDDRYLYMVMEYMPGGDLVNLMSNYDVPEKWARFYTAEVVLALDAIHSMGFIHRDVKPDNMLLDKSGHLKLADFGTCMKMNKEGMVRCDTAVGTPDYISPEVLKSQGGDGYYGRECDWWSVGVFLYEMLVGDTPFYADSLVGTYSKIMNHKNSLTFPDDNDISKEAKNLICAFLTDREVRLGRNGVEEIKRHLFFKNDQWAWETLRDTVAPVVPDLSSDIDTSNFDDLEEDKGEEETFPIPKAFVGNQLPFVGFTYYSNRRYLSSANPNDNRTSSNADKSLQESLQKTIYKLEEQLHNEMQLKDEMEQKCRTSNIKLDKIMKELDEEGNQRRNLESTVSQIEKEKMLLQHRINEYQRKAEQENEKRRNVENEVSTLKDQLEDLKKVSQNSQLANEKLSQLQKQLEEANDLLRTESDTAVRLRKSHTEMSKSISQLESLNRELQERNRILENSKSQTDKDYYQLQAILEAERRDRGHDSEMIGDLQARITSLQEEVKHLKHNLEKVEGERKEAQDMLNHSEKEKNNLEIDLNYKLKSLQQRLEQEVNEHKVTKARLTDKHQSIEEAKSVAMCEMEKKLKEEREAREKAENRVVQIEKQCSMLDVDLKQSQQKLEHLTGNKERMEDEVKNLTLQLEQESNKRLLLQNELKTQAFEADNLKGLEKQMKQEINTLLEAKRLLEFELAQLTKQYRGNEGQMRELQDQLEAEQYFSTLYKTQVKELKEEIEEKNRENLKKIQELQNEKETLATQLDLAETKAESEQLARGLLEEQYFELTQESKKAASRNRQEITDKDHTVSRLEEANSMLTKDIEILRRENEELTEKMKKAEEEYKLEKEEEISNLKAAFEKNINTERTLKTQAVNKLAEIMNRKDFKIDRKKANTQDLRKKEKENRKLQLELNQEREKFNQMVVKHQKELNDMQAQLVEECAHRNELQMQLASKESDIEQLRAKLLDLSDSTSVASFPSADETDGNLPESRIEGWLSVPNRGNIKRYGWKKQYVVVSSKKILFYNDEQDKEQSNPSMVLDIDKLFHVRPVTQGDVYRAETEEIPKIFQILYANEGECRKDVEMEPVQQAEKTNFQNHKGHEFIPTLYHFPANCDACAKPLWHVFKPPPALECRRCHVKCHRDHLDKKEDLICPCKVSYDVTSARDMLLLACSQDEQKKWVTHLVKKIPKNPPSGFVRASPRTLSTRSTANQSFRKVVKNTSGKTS
Method: as §2
Scatter plot depicts statistical differences in MIB-binding as a ratio of inhibitor/DMSO. Cells were treated with inhibitors at a dose of 2 μM and subjected to MIB/MS. Changes in MIB-binding were quantified using label free quantitation. Data presented in (A) are triplicate experiments SEM. *p≤0.05 by student's t-test.
as §3
Experiments using MIB/MS were performed as previously described (Duncan et al., Cell, 2012, 149, 307-321; and Kurimchak et al., Cell Reports, 2016, 16, 1273-1286). […] Protein concentrations were determined by BCA analysis (Thermo). […] An equal amount of the HKS was added to the non-labeled sample (cell, tumor or normal tissue) providing a quantitative strategy to compare kinome activity/levels across samples, amongst treatments and, importantly, across time. […]

ROCK2 = target: T3, ROCK2 (Homo sapiens, UniProt O75116); test: as above; format: cell-based; details: 2 μM, 4 hours
T3 construct: endogenous in cells; host or cells: OVSAHO
Method: as §2, §3
Experiments using MIB/MS were performed as previously described (Duncan et al., Cell, 2012, 149, 307-321; and Kurimchak et al., Cell Reports, 2016, 16, 1273-1286). Briefly, cells or tumors were lysed on ice in buffer containing 50 mM HEPES (pH 7.5), 0.5% Triton X-100, 150 mM NaCl, 1 mM EDTA, 1 mM EGTA, 10 mM sodium fluoride, 2.5 mM sodium orthovanadate, 1× protease inhibitor cocktail (Roche), and 1% each of phosphatase inhibitor cocktails 2 and 3 (Sigma). Particulate was removed by centrifugation of lysates at 13,000 rpm for 10 minutes at 4° C. and filtration through 0.2 μm syringe filters. Protein concentrations were determined by BCA analysis (Thermo). To compare kinome signatures within and across such large sample sizes, a super-SILAC method was designed (Neubert et al., Nat. Meth., 2010, 7, 361-362) consisting of a cocktail of cancer cell lines that encompasses the activity of the “cancer kinome” to be used as a control for individual samples. […] An equal amount of the HKS was added to the non-labeled sample (cell, tumor or normal tissue) providing a quantitative strategy to compare kinome activity/levels across samples, amongst treatments and, importantly, across time. […]
as §5

SNU-119 = test: Short-term growth assay (CellTiter-Glo cell viability), kinase inhibitors; format: cell-based, human; details: drug 1.2 uM
Method: (§6) Cell viability was determined by Cell Titer Glo analysis.
(§7) To explore the therapeutic potential of the HGSOC kinome signature, a detailed molecular analysis of protein levels/activity, growth and survival functions was carried out in a panel of recently validated HGSOC cell lines (Coscia et al., Nat. Commun., 2016, 7, 12645) that harbor commonly encountered HGSOC mutations and genetic rearrangements (see, FIG. 5A).
(§8) For short-term growth assays, 3000-5000 cells were plated per well in 96-well plates and allowed to adhere and equilibrate overnight. Drug was added the following morning and after 120 hours of drug treatment, cell viability was assessed using the CellTiter-Glo Luminescent cell viability assay according to manufacturer (Promega). Students t tests were performed for statistical analyses and p values ≤0.05 were considered significant. For colony formation assays, cells were plated in 24-well dishes (3000-5000 cells per well) and incubated overnight before continuous drug treatment for 14 days, with drug and media replaced twice weekly. At the end of treatment, cells were rinsed with PBS and fixed with chilled methanol for 10 minutes at −20° C. Methanol was removed by aspiration, and cells were stained with 0.5% crystal violet in 20% methanol for 20 minutes at room temperature, washed with distilled water, and scanned.

OVSAHO = test: as above; format: cell-based, human; details: drug 1.2 uM
Method: as §6, §7, §8

Kuramochi = test: as above; format: cell-based, human; details: drug 1.2 uM
Method: as §6, §7, §8

OVCAR4 = test: as above; format: cell-based, human; details: drug 1.2 uM
Method: as §6, §7, §8

COV362 = test: as above; format: cell-based, human; details: drug 1.2 uM
Method: as §6
COV362 cells were treated with increasing concentrations of A-674563 and cell viability assessed by Cell Titer Glo according to manufacturer's instructions. Data represent the mean of six replicates.
as §7, §8

HGSOC cells [2] = test: Cell viability of HGSOC cell line panel (Cell Titer Glo); format: cell-based, human; details: increasing concentrations; Cell Titer Glo
Method: Cells were treated with increasing concentrations of PF-03758309 and cell viability assessed by Cell Titer Glo according to manufacturer's instructions. Data represent the mean of six replicates.
Cell viability was assessed by Cell Titer Glo according to manufacturing. Data represent the mean of six replicates.
as §8

OVCAR4 cells = test: Drug growth inhibition in cells depleted of dark kinases by siRNA (Cell Titer Glo); format: cell-based, human; details: increasing doses of drug
Method: OVCAR4 cells were transfected with control nontargeting or dark kinase siRNAs and treated with escalating doses of appropriate drugs.
(§9) To explore if blocking dark kinases AAK1, STK38 or MRCKA activity in combination with current therapies improves drug efficacy, OVCAR4 cells depleted of AAK1, STK38 or MRCKA were treated with increasing doses of carboplatin, olaparib, JQ1, or a variety of kinase inhibitors in clinical trials for HGSOC.
(§10) siRNA transfections were performed using 25 nM siRNA duplex and the reverse transfection protocol. 3000-5000 cells per well were added to 96 well plates with media containing the siRNA and transfection reagent (Lipofectamine RNAiMax) according to the manufacturer's instructions. In experiments where inhibitors were used, the inhibitor was added at the time of transfection. Cells were allowed to grow for 72-120 hours post-transfection prior to CellTiter Glo (Promega) analysis. Two-to-three independent experiments were performed with each cell line and siRNA. Students t tests were performed for statistical analyses and p values ≤0.05 were considered significant. For western blot studies, the same procedure was performed with volumes and cell numbers proportionally scaled to a 60 mm or 10 cm dish, and cells were collected 24-72 hours post-transfection. siRNA product numbers and manufacturers are listed in Table 5.

HGSOC cells [3] = test: Drug response in cells depleted of MRCKA by siRNA (Cell Titer Glo, cleaved PARP blots); format: cell-based, human
Method: (§11) Cells transfected with control or MRKCA siRNAs were treated with increasing doses of carboplatin. Cell viability was assessed by Cell Titer Glo according to manufacturer's instructions. Data represent the mean of six replicates. GR50 were determined using PRISM.
Cells transfected with control or MRKCA siRNAs were treated with increasing doses of olaparib. Cell viability was assessed by Cell Titer Glo according to manufacturer's instructions. Data represent the mean of six replicates. GR50 were determined using PRISM.
as §9, §10

[4] = tested on: carboplatin-resistant COV362 cells; test: Carboplatin response in cells depleted of MRCKA by siRNA; format: cell-based, human
Method: as §11, §9
as §10, with “For western blot studies, the same procedure was performed with volumes and cell numbers proportionally scaled to a 60 mm or 10 cm dish, and cells were collected 24-72 hours post-transfection. siRNA product numbers and manufacturers are listed in Table 5.” left out

T1 sequence (Q9Y5S2 whole entry): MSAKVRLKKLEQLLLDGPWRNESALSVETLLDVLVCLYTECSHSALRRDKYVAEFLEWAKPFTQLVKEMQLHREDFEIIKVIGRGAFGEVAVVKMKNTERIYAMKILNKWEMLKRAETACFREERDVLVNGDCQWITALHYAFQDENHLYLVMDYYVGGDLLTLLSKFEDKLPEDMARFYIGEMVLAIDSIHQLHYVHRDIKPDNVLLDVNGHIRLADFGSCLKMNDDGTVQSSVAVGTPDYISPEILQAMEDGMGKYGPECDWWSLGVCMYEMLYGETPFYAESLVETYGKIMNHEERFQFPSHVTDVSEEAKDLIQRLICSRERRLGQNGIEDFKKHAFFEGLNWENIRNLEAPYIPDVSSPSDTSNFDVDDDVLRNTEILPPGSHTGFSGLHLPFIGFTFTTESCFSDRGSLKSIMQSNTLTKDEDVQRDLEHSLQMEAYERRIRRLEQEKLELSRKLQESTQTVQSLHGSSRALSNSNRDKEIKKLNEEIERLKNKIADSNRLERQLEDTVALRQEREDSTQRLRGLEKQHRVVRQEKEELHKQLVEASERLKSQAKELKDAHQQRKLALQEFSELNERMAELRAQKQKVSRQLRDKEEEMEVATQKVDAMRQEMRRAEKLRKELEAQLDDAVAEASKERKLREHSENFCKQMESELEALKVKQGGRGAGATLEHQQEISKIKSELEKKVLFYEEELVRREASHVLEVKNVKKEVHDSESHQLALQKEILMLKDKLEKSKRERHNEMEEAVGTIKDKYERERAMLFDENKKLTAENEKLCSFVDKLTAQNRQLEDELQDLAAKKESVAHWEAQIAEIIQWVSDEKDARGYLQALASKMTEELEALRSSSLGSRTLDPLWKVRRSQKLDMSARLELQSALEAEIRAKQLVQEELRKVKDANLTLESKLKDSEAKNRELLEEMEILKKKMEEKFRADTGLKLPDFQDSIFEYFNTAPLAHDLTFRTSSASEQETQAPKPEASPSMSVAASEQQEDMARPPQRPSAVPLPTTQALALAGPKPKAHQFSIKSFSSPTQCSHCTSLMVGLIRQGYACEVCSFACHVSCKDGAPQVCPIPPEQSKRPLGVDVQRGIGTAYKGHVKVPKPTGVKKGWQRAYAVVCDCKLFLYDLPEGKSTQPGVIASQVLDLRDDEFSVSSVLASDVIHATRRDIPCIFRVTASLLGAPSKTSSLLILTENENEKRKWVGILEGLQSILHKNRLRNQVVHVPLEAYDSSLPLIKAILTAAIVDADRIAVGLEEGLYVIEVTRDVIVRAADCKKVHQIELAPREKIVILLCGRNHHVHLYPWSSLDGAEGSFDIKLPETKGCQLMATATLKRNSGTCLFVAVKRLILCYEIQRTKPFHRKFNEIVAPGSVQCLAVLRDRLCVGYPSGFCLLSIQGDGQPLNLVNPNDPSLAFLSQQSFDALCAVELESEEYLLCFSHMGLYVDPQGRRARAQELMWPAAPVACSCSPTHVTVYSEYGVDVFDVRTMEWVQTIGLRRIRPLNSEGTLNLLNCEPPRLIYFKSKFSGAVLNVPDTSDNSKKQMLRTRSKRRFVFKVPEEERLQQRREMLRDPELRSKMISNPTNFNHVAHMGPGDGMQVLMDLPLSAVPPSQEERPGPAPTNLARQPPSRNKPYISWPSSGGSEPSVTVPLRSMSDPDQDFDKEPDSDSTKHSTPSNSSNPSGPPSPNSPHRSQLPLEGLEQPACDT

CC1=C(C(=O)Nc2cc(Cl)c3[nH]ncc3c2)C(c2ccc(C(F)(F)F)cc2)CC(=O)N1 (stereo not drawn) [GSK466317A]
MIB-binding of MRCKB relative to DMSO (MRCKB): Reduced MIB-binding
FAK1, MLC and Paxillin phosphorylation [1]: reduced
MIB-binding of MRCKA relative to DMSO (MRCKA): Reduced MIB-binding
MIB-binding of ROCK1 (ROCK1): reduction in MIB-binding
MIB-binding of ROCK2 (ROCK2): reduction in MIB-binding

CS(=O)(=O)CCNCc1ccc(-c2ccc3ncnc(Nc4ccc(OCc5cccc(F)c5)c(Cl)c4)c3c2)o1 [Lapatinib]
MIB-binding of MRCKB relative to DMSO (MRCKB): no effect
Kinase inhibition profile of HGSOC cells (growth inhibition, Cell Titer Glo) (SNU-119): 0.15
Kinase inhibition profile of HGSOC cells (growth inhibition, Cell Titer Glo) (OVSAHO): 1.053
Kinase inhibition profile of HGSOC cells (growth inhibition, Cell Titer Glo) (Kuramochi): 0.9704
Kinase inhibition profile of HGSOC cells (growth inhibition, Cell Titer Glo) (OVCAR4): 0.974
Kinase inhibition profile of HGSOC cells (growth inhibition, Cell Titer Glo) (COV362): 0.9973
MIB-binding of MRCKA relative to DMSO (MRCKA): no effect

CNC(=O)c1ccccc1Nc1cc(Nc2ccc(N3CCOCC3)cc2OC)ncc1C(F)(F)F [PND1186]
Kinase inhibition profile of HGSOC cells (growth inhibition, Cell Titer Glo) (SNU-119): 0
Kinase inhibition profile of HGSOC cells (growth inhibition, Cell Titer Glo) (OVSAHO): 0.69
Kinase inhibition profile of HGSOC cells (growth inhibition, Cell Titer Glo) (Kuramochi): 0.51
Kinase inhibition profile of HGSOC cells (growth inhibition, Cell Titer Glo) (OVCAR4): 0.51
Kinase inhibition profile of HGSOC cells (growth inhibition, Cell Titer Glo) (COV362): 0.34
cell viability of HGSOC cells (HGSOC cells [2]): reduced cell viability

O=C(NCc1cccc(O)c1)Nc1nc(-c2ccncc2)cs1 [RKI-1447]
FAK1, MLC and Paxillin phosphorylation [1]: reduced
MIB-binding of ROCK1 (ROCK1): reduction in MIB-binding

CCn1c(-c2nonc2N)nc2cncc(C(=O)N3CC[C@H](N)C3)c21 [SB-772077-B]
FAK1, MLC and Paxillin phosphorylation [1]: reduced
MIB-binding of ROCK2 (ROCK2): reduction in MIB-binding

Fc1ccc(Cl)cc1-c1nc(Nc2ccncc2)c2nccnc2n1 [SD-208]
MIB-binding of MRCKB relative to DMSO (MRCKB): no effect
MIB-binding of MRCKA relative to DMSO (MRCKA): no effect

N.N.O=C([O-])C1(C(=O)[O-])CCC1.[Pt+2] [carboplatin]
growth inhibition by drug with MRCKA knockdown relative to non-targeting control siRNA (OVCAR4 cells): enhanced growth inhibition
apoptosis (cleaved PARP) of drug plus MRCKA depletion (HGSOC cells [3]; HGSOC cell lines): induced apoptosis better than individual therapies
effect of drug on cell viability with MRCKA depletion (HGSOC cells [3]; additional HGSOC cell lines, increasing doses): enhanced the effect of carboplatin
cell growth and apoptosis, MRCKA knockdown in combination with drug [4]: inhibited cell growth and induced apoptosis

O=C(c1cc(Cc2n[nH]c(=O)c3ccccc23)ccc1F)N1CCN(C(=O)C2CC2)CC1 [olaparib]
growth inhibition by drug with MRCKA knockdown relative to non-targeting control siRNA (OVCAR4 cells): enhanced growth inhibition
growth inhibitory and apoptotic response to drug with MRCKA knockdown (HGSOC cells [3]; HGSOC cells, increasing doses): improved the growth inhibitory and apoptotic response
